In PMC11475570, “Impact of Optimized Ku–DNA Binding Inhibitors on the Cellular and In Vivo DNA Damage Response” (Cancers, 2024):

Assays:
Format in all cases: cell-based, Human
[1] = tested on: H460 cells; experiment: 3392 and bleomycin combination, CCK-8, SynergyFinder
Description: (§1) Cell metabolism/viability was assessed using a mitochondrial metabolism assay (CCK-8) kit (Cell Counting Kit-8, Cat: CK04, Dojindo Laboratories, Rockville, MD, USA) as previously described. Briefly, cells were seeded at a density of 3 × 10^3 cells per well in 96-well plates and allowed to adhere and stretch for 18–24 h prior to treatment. Cells were pre-treated with Ku-DBi for 24 h before bleomycin treatments. Subsequently, cells were incubated for an additional 48 h at 37 °C after which CCK-8 assay was performed. The absorbance of the formed formazan product in each well was measured at 450 nm and compared to vehicle-treated controls to determine percent cell viability. The results represent the average and SEM of triplicate determinations.

[2] = tested on: A549; experiment: CCK-8 cell viability, single agent
Description: as §1

[3] = tested on: H23; experiment: CCK-8 cell viability, single agent; settings: Homo sapiens
Description: as §1

[4] = tested on: H1299; experiment: CCK-8 cell viability, single agent
Description: as §1

[5] = tested on: MDA-468; experiment: CCK-8 cell viability, single agent; settings: Homo sapiens
Description: as §1

[6] = tested on: MDA-436; experiment: CCK-8 cell viability, single agent; settings: Homo sapiens
Description: as §1

[7] = tested on: H460; experiment: CCK-8 cell viability, single agent; settings: for IC50: H460, CCK-8, 72 h, mean ± SD
Description: as §1

IC50 ([2]; Homo sapiens, A549, CCK-8, 72 h, mean ± SD): > 50 µM
IC50 ([4]; Homo sapiens, NCI-H1299, H1299, CCK-8, 72 h, mean ± SD): > 50 µM
IC50 [7]: 7.7 ± 0.6 µM
IC50 ([7]; Homo sapiens, NCI-H460, 72 h): ~8 µM
SMILES: COc1ccc(-c2ccc(/C=C3\C(=O)N(c4cccc(C(=O)O)c4)c4ccccc43)o2)cc1C(=O)Nc1cccc(OC(F)(F)F)c1 [GL-3392]
Type of interaction with bleomycin (HSA and Bliss models) ([1]; H460, 3392 combined with bleomycin): additive interaction
inhibition at 5 µM ([1]; Homo sapiens, NCI-H460, H460, bleomycin 0 μM, GL-3392 5 μM, read-out: Response matrix for inhibition): 34%
inhibition at 10 µM ([1]; Homo sapiens, NCI-H460, H460, bleomycin 0 μM, GL-3392 10 μM, read-out: Response matrix for inhibition): 78.9%
inhibition at 15 µM ([1]; Homo sapiens, NCI-H460, H460, bleomycin 0 μM, GL-3392 15 μM, read-out: Response matrix for inhibition): 79.8%
Cell viability at the highest concentrations assessed ([2]; A549): ~50%
viability at 25 µM ([2]; Homo sapiens, A549, 25 µM): 46.2 ± 3.8%
IC50 ([3]; NCI-H23, 72 h, H23, CCK-8, 72 h, mean ± SD): ~8 µM
viability at 25 µM ([3]; NCI-H23, H23, 25 µM): 12.7 ± 0.7%
Cell viability at the highest concentrations assessed ([4]; H1299): ~ 90%
viability at 25 µM ([4]; Homo sapiens, NCI-H1299, H1299, 25 µM): 89.9 ± 10.1%
viability at 25 µM ([5]; MDA-468, 25 µM): 29.4 ± 1.3%
IC50 ([5]; MDA-468, CCK-8, 72 h, mean ± SD): 10.4 ± 1.5 µM
viability at 25 µM ([6]; MDA-436, 25 µM): 43.9 ± 2.6%
IC50 ([6]; MDA-436, CCK-8, 72 h, mean ± SD): 22.2 ± 1.4 µM
viability at 25 µM ([7]; Homo sapiens, NCI-H460, H460, 25 µM): 12.3 ± 0.6%
